Data taken from patent publication US6645973B1, “Spiro(2h-1-benzopyran-2,4-piperidine)derivatives as glycine transport inhibitors” (Akzo Nobel, priority 1999, dated 2003).
Structures can show the parent of a compound that is named as a salt.

melting point	SMILES
263 to 274 °C	O=C(O)CN1CCC2(C=C(c3ccc(Cl)c(F)c3)c3ccccc3O2)CC1 (as salt: hydrochloride) [Example 8, 1′-Carboxymethyl-4-(4-chloro-3-fluorophenyl)spiro[2H-1-benzopyran-2,4′-piperidine]hydrochloride]
238 to 250 °C	CN(C)c1ccc(C2=CC3(CCN(CC(=O)O)CC3)Oc3ccccc32)cc1 (as salt: hydrochloride) [Example 24, 1′-Carboxymethyl-4-[4-(N,N-dimethylamino)phenyl]spiro[2H-1-benzopyran-2,4′-piperidine]hydrochloride]
231 to 242 °C	CN(C)c1c(F)cc(C2=CC3(CCN(CC(=O)O)CC3)Oc3ccccc32)cc1F (as salt: hydrochloride) [Example 38, 1′-Carboxymethyl-4-(3,5-difluoro-4-dimethylaminophenyl)spiro[2H-1-benzopyran-2,4′-piperidine]hydrochloride]

The next lines start with the compound.

SMILES	melting point
O=C([O-])CN1CCC2(C=C(c3ccccc3)c3cc(F)ccc3O2)CC1.[Li+]	293 to 298 °C (dec.)
CCOC(=O)CN1CCC2(C=C(c3ccc(CC)cc3)c3ccccc3O2)CC1 [Example 65, Ethyl 4-(4-ethylphenyl)spiro[2H-1-benzopyran-2,4′-piperidine]-1′-acetate]	119 to 121 °C
O=C([O-])CN1CCC2(CC1)CC(c1ccc(F)cc1)c1ccccc1O2.[Li+] (centres unmarked)	274 to 278 °C (dec.)
O=C([O-])CN1CCC2(C=C(c3ccc(F)cc3)c3ccccc3O2)CC1.[Li+]	285 to 291 °C (dec.)
O=C(O)CN1CCC2(C=C(c3cc(F)c(OCC(F)(F)F)c(F)c3)c3ccccc3O2)CC1 (as salt: hydrochloride) [Example 59, 1′-Carboxymethyl-4-(3,5-difluoro-4-trifluoroethoxyphenyl)spiro[2H-1-benzopyran-2,4′-piperidine]hydrochloride]	244 to 251 °C
